The subject of data set [1] is adenylate cyclase. Put plainly: Photolabelling of partially purified bovine brain adenylate cyclase, SDS gel electrophoresis. It counts as binding. The procedure:
(§1) Derivative 20 (6-AIPPS-Fsk) is incubated with partially purified preparations of bovine brain adenylate cyclase, photolyzed, and then the radioactive proteins are analyzed by SDS gel electrophoresis. […] 6-AIPPS-Fsk can also label adenylate cyclase in crude membranes. 6-AIPPS-Fsk is incubated with bovine brain membranes, photolyzed, and the radioactive proteins are analyzed by SDS gel electrophoresis.

A further data set concerns the target P-glycoprotein (Homo sapiens, UniProt P08183).
The subject of data set [2] is adenylate cyclase. In words: Photolabelling of bovine brain membranes, SDS gel electrophoresis. It counts as binding. The procedure: as §1
The target in data set [3] is T1, glucose transporter (Homo sapiens, UniProt P11166).
T1 construct: Crude membranes from human red blood cells; from tissue; host or cells: human red blood cells, membranes
T1 sequence (P11166 1-492): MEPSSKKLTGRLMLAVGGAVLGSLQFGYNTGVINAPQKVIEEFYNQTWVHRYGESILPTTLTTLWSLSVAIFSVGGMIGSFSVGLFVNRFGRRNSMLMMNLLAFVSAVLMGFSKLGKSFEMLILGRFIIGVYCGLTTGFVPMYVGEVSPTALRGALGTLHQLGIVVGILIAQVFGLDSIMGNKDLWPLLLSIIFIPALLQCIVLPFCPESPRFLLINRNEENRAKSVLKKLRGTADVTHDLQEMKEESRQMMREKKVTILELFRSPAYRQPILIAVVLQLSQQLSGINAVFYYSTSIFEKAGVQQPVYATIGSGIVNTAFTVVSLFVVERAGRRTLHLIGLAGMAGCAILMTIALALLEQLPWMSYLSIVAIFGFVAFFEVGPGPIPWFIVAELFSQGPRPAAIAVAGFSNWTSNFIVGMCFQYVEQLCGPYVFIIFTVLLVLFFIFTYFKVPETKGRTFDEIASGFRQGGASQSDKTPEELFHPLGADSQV
In words: Photolabelling of human red blood cell membranes, SDS gel electrophoresis. The class given is binding. The protocol: Derivative 9 (7-AIPPS-Fsk) is incubated with human red blood cell membranes, photolyzed, and then the radioactive proteins were analyzed by SDS gel electrophoresis.

A further data set in a line: Water solubility. The following applies: relative to forskolin. The class given is physicochemical.
Data set [4] relates to bovine brain adenylate cyclase. Put plainly: Activation of bovine brain adenylate cyclase. The class given is biochemical. As to conditions: relative to forskolin.
In data set [5] the test system is adenylate cyclase. The following applies: literature; cited from earlier work.
The conditions of data set [6]: mildly basic conditions; literature; cited from earlier work.
For data set [7], the target named is T1, glucose transporter. In words: Filtration binding assay, ^125 I-labelled derivative 8 (7-^125 I-HPP-Fsk) to human red blood cell membranes. The procedure: Binding of 7-^125 IHPP-Fsk to Membranes--Crude membranes from human red blood cells were incubated for 60 minutes at 20° C. with 20,000 cpm of 7-^125 IHPP-Fsk. […] The incubations were carried out at 20° C. for 60 minutes in 12×75 glass test tubes in a total volume of 0.4 mL 50 mM Tris-HCl buffer, pH 7.4. The assay was terminated by the addition of 4 mL of cold Tris-HCl buffer to the tubes at rapid filtration over Whatman GF/C filters using a Brandel cell harvester. The assay was terminated as described above and the filters counted in a gamma counter. The nonspecific binding was calculated as the amount of label not displaced by 20 μM forskolin.

The subject of data set [8] is glucose transporter. In words: Binding of 7-^125 I-HPP-Fsk to rat muscle. From the text:
(§2) 7-^125 I-HPP-Fsk also binds with high affinity to other tissues including bovine brain, rat heart, rat muscle, and human platelets. The binding of 7-^125 I-HPP-Fsk to these tissues is inhibited by D-glucose and cytochalasin B. Therefore, 7-^125 I-HPP-Fsk binds with high affinity to the glucose transporter in diverse tissues.

For data set [9], the target named is T2, glucose transporter (Homo sapiens, UniProt P11169).
T2 construct: other tissues including bovine brain, rat heart, rat muscle, and human platelets; from tissue; host or cells: human platelets
T2 sequence (P11169 1-496): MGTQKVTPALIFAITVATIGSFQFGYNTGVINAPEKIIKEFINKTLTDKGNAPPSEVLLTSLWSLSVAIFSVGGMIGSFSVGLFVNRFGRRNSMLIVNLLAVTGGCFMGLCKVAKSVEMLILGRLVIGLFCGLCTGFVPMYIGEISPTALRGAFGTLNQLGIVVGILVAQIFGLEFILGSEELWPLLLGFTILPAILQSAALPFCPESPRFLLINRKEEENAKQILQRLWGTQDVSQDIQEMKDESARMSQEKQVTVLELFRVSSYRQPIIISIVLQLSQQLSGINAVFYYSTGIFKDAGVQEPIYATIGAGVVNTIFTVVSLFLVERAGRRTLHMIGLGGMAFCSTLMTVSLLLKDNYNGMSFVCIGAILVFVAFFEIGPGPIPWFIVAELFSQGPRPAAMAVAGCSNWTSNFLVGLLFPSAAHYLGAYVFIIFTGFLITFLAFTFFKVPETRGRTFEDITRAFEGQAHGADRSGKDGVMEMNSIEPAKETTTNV
In words: Binding of 7-^125 I-HPP-Fsk to human platelets.
Description: as §2

For data set [10], the system named is glucose transporter. Put plainly: Binding of 7-^125 I-HPP-Fsk to bovine brain.
Description: as §2

The subject of data set [11] is glucose transporter. Put plainly: Binding of 7-^125 I-HPP-Fsk to rat heart.
Description: as §2

Data set [12] relates to adenylate cyclase. In words: Filtration binding assay, ^125 I-labelled derivative 19 (6-^125 I-HPP-Fsk) to bovine brain membranes. As to conditions: bovine brain membranes, 20° C., 60 min. From the text:
Derivative 19 (6-^125 I-HPP-Fsk) was used to develop a binding assay for adenylate cyclase (Example 4). […] Therefore, a filtration assay can be used to separate the bound from free ligand and determine the amount of high affinity binding. […] Analogs of forskolin that activate adenylate cyclase inhibit the binding of 6-^125 I-HPP-Fsk to membranes. The ability of an agent to inhibit 6-^125 I-HPP-Fsk binding to membranes is therefore indicative of its ability to stimulate adenylate cyclase.
Binding of 6-^125 I-HPP-Fsk to Membranes--Crude membranes from bovine brain were incubated for 60 minutes at […] 20° C. with 20,000 cpm of 6-^125 I-HPP-Fsk. Binding equilibrium was reached by 45 minutes and was constant for at least 2 hours (data not shown). The incubations were carried out at 20° C. for 60 minutes in 12×75 glass test tubes in a total volume of 0.4 mL […] Tris-HCl buffer, pH 7.4. The membranes (0.40 mg/tube) were incubated in the presence of 5 mM MgCl2 and 10 mM NaF. The assay was terminated by the addition of 5 mL of cold Tris-HCl buffer to the tubes and rapid filtration over Whatman GF/C filters using a Brandel cell harvester. The assay was terminated as described above and the filters counted in a gamma counter. The nonspecific binding was calculated as the amount of label not displaced by 20 uM forskolin. The non specific binding was about 20% of the total bound.

The test system of data set [13] is adenylate cyclase. The following applies: literature; cited from earlier work. This is another data set of the same source.

Here are results for 15 molecules from patent US5350864A, “Aminoalkylcarbamyl derivatives of forskolin as intermediates for the synthesis of useful forskolin derivatives” (The United States of America as represented by the …, priority 1990, dated 1994).

“Also recorded” adds a separate entry of the source. Where two headings read alike, the source gives them in different places.

Sequence of P-glycoprotein (P08183 whole entry): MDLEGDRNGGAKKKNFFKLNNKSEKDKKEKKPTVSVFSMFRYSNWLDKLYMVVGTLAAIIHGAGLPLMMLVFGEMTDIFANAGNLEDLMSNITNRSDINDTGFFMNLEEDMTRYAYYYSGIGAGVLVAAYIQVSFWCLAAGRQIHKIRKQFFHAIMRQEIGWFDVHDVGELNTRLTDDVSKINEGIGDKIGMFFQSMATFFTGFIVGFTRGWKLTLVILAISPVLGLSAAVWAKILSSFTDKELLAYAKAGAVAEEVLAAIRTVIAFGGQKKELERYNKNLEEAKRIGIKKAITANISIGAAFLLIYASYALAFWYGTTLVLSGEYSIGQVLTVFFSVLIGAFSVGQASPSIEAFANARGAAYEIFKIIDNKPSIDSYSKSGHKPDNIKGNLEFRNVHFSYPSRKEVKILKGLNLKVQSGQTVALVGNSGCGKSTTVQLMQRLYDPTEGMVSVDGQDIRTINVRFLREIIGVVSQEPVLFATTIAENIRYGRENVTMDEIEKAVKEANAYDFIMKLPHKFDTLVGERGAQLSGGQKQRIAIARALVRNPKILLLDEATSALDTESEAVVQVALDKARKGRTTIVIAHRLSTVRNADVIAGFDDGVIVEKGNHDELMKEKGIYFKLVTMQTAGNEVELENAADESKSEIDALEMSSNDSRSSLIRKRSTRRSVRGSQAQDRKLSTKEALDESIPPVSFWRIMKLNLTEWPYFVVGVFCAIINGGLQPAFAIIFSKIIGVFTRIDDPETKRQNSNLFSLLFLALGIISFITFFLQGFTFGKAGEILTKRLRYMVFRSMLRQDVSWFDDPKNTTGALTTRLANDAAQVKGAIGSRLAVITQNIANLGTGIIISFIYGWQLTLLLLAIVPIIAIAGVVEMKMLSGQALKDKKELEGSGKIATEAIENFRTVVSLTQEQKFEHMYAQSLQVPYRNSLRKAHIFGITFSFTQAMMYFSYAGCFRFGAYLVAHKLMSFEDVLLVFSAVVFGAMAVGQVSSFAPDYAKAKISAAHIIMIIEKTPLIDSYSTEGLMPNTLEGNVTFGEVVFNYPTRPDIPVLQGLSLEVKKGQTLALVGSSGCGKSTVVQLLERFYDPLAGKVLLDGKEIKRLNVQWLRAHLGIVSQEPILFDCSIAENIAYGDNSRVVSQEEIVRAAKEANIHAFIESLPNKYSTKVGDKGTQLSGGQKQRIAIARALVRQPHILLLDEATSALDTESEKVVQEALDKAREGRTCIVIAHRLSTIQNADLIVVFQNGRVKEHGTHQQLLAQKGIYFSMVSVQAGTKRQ

As to `C=C[C@@]1(C)CC(=O)[C@]2(O)[C@@]3(C)[C@@H](O)CCC(C)(C)[C@@H]3[C@H](OC(=O)NCCNC(=O)CCc3ccc(N=[N+]=[N-])c([125I])c3)[C@H](OC(C)=O)[C@@]2(C)O1` [Derivative 20], the “photolabelling of adenylate cyclase” value in the data set on adenylate cyclase [1] is reported as “covalently incorporated into the adenylate cyclase”; in the data set on adenylate cyclase [2] it was “labels the adenylate cyclase in bovine brain membranes”. On P-glycoprotein, the “photolabelling of P-glycoprotein” value was “labelled”.

As for `C=C[C@@]1(C)CC(=O)[C@]2(O)[C@@]3(C)[C@@H](O)CCC(C)(C)[C@@H]3[C@H](O)[C@H](OC(=O)NCCNC(=O)CCc3ccc(N=[N+]=[N-])c([125I])c3)[C@@]2(C)O1` [Derivative 9], the “photolabelling of adenylate cyclase” value in the data set on adenylate cyclase [2] was “less efficient at labelling the adenylate cyclase than the 6-AIPPS-Fsk”. Besides, the “photolabelling of glucose transporter” value at glucose transporter [3] (listed as 7-AIPPS-Fsk) was “labels the glucose transporter; also recorded: more potent at labelling the glucose transporter in human red blood cell membranes than 6-AIPPS-Fsk”.

Consider `C=C[C@@]1(C)CC(=O)[C@]2(O)[C@@]3(C)[C@@H](O)CCC(C)(C)[C@@H]3[C@H](OC(=O)NCCN)[C@H](OC(C)=O)[C@@]2(C)O1` [Compound 4, 6-aminoethylcarbamylforskolin], for which the water solubility entry in “Water solubility” is reported as “enhanced water solubility”. In [4], the “extent of stimulation of adenylate cyclase” value is listed as “stimulate adenylate cyclase to a greater extent than forskolin”.

As for `C=C[C@@]1(C)CC(=O)[C@]2(O)[C@@]3(C)[C@@H](O)CCC(C)(C)[C@@H]3[C@H](O)[C@H](OC(=O)CCl)[C@@]2(C)O1` [7-desacetyl-7-chloroacetylforskolin], the “block of forskolin binding site” value in the data set on adenylate cyclase [5] was “block the forskolin binding site on adenylate cyclase”. Further, the “susceptibility to hydrolysis and rearrangement” value in [6] is “susceptible to hydrolysis and rearrangement under mildly basic conditions”.

`OC[C@H]1OC(O)[C@H](O)[C@@H](O)[C@@H]1O` (stereo partly drawn) [D-glucose]: the “inhibition of 7-^125 I-HPP-Fsk binding” value at glucose transporter [7] was “inhibited; also recorded: inhibition of binding”; in the data set on glucose transporter [8] it was “inhibited”; at glucose transporter [9], “inhibited”; with glucose transporter [10], “inhibited”; with glucose transporter [11] it was “inhibited”. For the same molecule, the “inhibition of labelling by 7-AIPPS-Fsk” value against glucose transporter [3] is given as “inhibited”. Further, the “inhibition of 6-^125 I-HPP-Fsk binding” value in the data set with adenylate cyclase [12] was “not inhibited”.

In the case of `CC[C@@]1(C)CC(=O)[C@]2(O)[C@@]3(C)[C@@H](O)CCC(C)(C)[C@@H]3[C@H](O)[C@H](OC(C)=O)[C@@]2(C)O1` [14,15-dihydroforskolin], in the data set with adenylate cyclase [13], the “activation of adenylate cyclase” value is given as “less potent than forskolin”.

In the case of `C=C[C@@]1(C)CC(=O)[C@]2(O)[C@@]3(C)[C@@H](O)CCC(C)(C)[C@@H]3[C@H](OC(=O)NCCNC(=O)CCc3ccc(O)cc3)[C@H](OC(C)=O)[C@@]2(C)O1` [Derivative 21], the “inhibition of labelling by 6-AIPPS-Fsk” value at P-glycoprotein is “more potent at inhibiting the labelling by 6-AIPPS-Fsk than forskolin”.

In the case of `C=C[C@@]1(C)CC(O)[C@]2(O)[C@@]3(C)[C@@H](O)CCC(C)(C)[C@@H]3[C@H](O)[C@H](OC(C)=O)[C@@]2(C)O1` (stereo partly drawn) [11β-hydroxyforskolin], the “activation of adenylate cyclase” value in the data set with adenylate cyclase [13] is listed as “less potent than forskolin”.

`C=C[C@@]1(C)CC(=O)[C@]2(O)[C@@]3(C)[C@@H](O)CCC(C)(C)[C@@H]3[C@H](O)[C@H](OC(=O)CBr)[C@@]2(C)O1` [7-descacetyl-7-bromoacetylforskolin]: the “block of forskolin binding site” value in the data set with adenylate cyclase [5] is “block the forskolin binding site on adenylate cyclase”. Also, the “susceptibility to hydrolysis and rearrangement” value in [6] is “susceptible to hydrolysis and rearrangement under mildly basic conditions”.

Turning to `C=C[C@@]1(C)CC(=O)[C@]2(O)[C@@]3(C)[C@@H](O)CCC(C)(C)[C@@H]3[C@H](O)[C@H](OC(=O)CC)[C@@]2(C)O1` [7-desacetyl-7-propionylforskolin], the “activation of adenylate cyclase” value in the data set on adenylate cyclase [13] is listed as “active at adenylate cyclase”.

For `C=C[C@@]1(C)CC(=O)[C@]2(O)[C@@]3(C)[C@@H](O)CCC(C)(C)[C@@H]3[C@H](O)[C@H](O)[C@@]2(C)O1` [7-desacetylforskolin], the “activation of adenylate cyclase” value with adenylate cyclase [13] is “less potent than forskolin”.

In the case of `C=C[C@@]1(C)CC(=O)[C@]2(O)[C@@]3(C)[C@@H](O)CCC(C)(C)[C@@H]3[C@H](OC(C)=O)[C@H](O)[C@@]2(C)O1` [6-acetyl-7-desacetylforskolin], the “activation of adenylate cyclase” value in the data set with adenylate cyclase [13] was “less potent than forskolin”.

For `OC[C@@H]1OC(O)[C@@H](O)[C@H](O)[C@H]1O` (stereo partly drawn) [L-glucose], the “inhibition of 7-^125 I-HPP-Fsk binding” value at glucose transporter [7] is recorded as “not L-glucose”.

In the case of `C=C[C@@]1(C)CC(=O)[C@]2(O)[C@@]3(C)[C@@H](O)CCC(C)(C)[C@@H]3[C@H](O)[C@H](OC(=O)NCCNC(=O)CCc3ccc(O)c([125I])c3)[C@@]2(C)O1` [Derivative 8], the “time binding was constant” value on glucose transporter [7] (20° C.) is “at least 2 hours”. Moreover, at glucose transporter [7] (20° C.), the “time to binding equilibrium” value was ≤ 45 min. Besides, the “binding affinity / selectivity” value at glucose transporter [7] (human red blood cell glucose transporter, listed as 7-^125 I-HPP-Fsk) is reported as “binds to the human red blood cell glucose transporter with high affinity; also recorded: will not detect adenylate cyclase”. Moreover, the “nonspecific binding (of total bound)” value on glucose transporter [7] (label not displaced by 20 μM forskolin) is recorded as “about 20%”. In addition, the Kd at glucose transporter [7] (membranes from human red blood cells, read-out: affinity of 7-^125 I-HPP-Fsk) stood at 30 nM. In addition, the “binding affinity” value with glucose transporter [8], on glucose transporter [9], with glucose transporter [10] and with glucose transporter [11] was “high affinity” throughout.

In the case of `O=C(CCc1ccc(O)cc1)c1c(O)cc(O)cc1O[C@@H]1O[C@H](CO)[C@@H](O)[C@H](O)[C@H]1O` [phloridzin], the “inhibition of 7-^125 I-HPP-Fsk binding” value at glucose transporter [7] (human red blood cell membranes) is listed as “relatively potent”.
